Results as given in patent publication US9802929B2, “Benzo five-membered nitrogen heterocyclic piperidine or piperazine derivatives and preparation methods and pharmaceutical compositions thereof” (Shenyang Haiwang Biotechnology Co., Ltd., priority 2012, dated 2017).

Experiments:
[1] = test system: α1 receptors; assay: Antagonism of α receptor agonist (noradrenaline / phenylephrine) cumulative contraction of rabbit aorta, pA2; conditions: for PA2 value against Phenylephrine contraction: Phenylephrine cumulative contraction; for PA2 value against NA contraction: noradrenaline (NA) cumulative contraction
Source text: (§1) Cut the chest open quickly after stunning, strip out the descending aorta, then after removing the surrounding connective tissue and adipose tissue (if performed serotonin receptor antagonist experiments, endothelial cells should be removed using a smooth stainless steel bars), cut the vessels into 3-5 mm vascular ring, then pass the steel hook through the blood vessel ring, with one end is fixed to the vent hook and the other end connected to the tension transducer, then place the specimens into bath tube containing 20 mL of nutrient solution, and record tension change by tension transducer. Maintain tube temperature at 37±0.5° C., and pass bubbles (95% O2+5% CO2) into the solution as a speed of 1-2 bubbles/minute. Place an initial load of 1.5 g on the rings, and change nutrient every 20 minutes, then balance for 2 hours and start test after baseline readings are stabilized.
After the tension is stabilized, record a certain length of the curve, and add NA (10^−8-10^−4 mol/L) to the tube until a maximum response is achieved, and then record the curve. Then wash the specimen with K—H solution repeatedly, balance for 1 h, add compound II-36 (3×10^−7 mol/L), and 20 minutes later, add NA following a same procedure. Mark NA contraction as ordinate using maximum response as 100% base. […] The larger the PA2 value, the stronger the antagonist effect. It is calculated based on the values of the attached figures by software.
After the tension is stabilized, record a certain length of the curve, and add NA (10^−8-10^−4 mol/L) to the tube until a maximum response is achieved, and then record the curve. Then wash the specimens repeatedly with K—H solution, and refresh K—H solution every 20 minutes, and balance for 60 minutes to allow baseline values are stabilized; then add doxazosin (10^−7 mol/L) and after 15 minutes, add NA in the same way (10^−8-6×10^−5 mol/L). Mark NA contraction as ordinate using maximum response as 100% base. […] The PA2 value of positive control doxazosin is 7.52±0.04 against NA contraction of rabbit aorta.
(§2) After the tension is stabilized, record a certain length of the curve, and add NA (3×10^−7-6×10^−5 mol/L) to the tube until a maximum response is achieved, and then record the curve. Then wash the specimen with K—H solution repeatedly, balance for 1 h, add compound II-65 (3×10^−6 mol/L), and 20 minutes later, add NA (3×10^−7-3×10^−4 mol/L) following a same procedure. Mark NA contraction as ordinate using maximum response as 100% base. […] PA2 value of compound II-65 is 6.02±0.13 against NA contraction effect on rabbit aorta.
After above procedures, wash the specimen repeatedly with K—H solution, balance for 1 hour, add doxazosin (10^−7 mol/L), and add NA in the same way after 15 minutes. Mark NA contraction as ordinate using maximum response as 100% base. […] The PA2 value of positive control doxazosin is 7.16±0.24 against NA contraction of rabbit aorta.
as §2, with “Phenylephrine (10^−6-6×10^−3” for “NA (3×10^−7-6×10^−5”, “II-68 (3×10^−8” for “II-65 (3×10^−6”, “Phenylephrine” for “NA (3×10^−7-3×10^−4 mol/L)”, “Phenylephrine” for “NA”, “II-68” for “II-65”, “8.45±0.03” for “6.02±0.13”

[2] = test system: Ca^2+ channel; assay: Antagonism of CaCl2 cumulative contraction of rabbit aorta, pA2; conditions: CaCl2 cumulative contraction after Ca-free hyperkalemia depolarization
Source text: Calcium-free K—H solution: Remove CaCl2 from K—H solution, add an equal number of moles of KCl, and add EDTA^−2Na^+ 0.1 mmol/L, while the other components remain unchanged.
Calcium-free hyperkalemia solution: Remove CaCl2 from hyperkalemia solution, add an equal number of moles of KCl, and add EDTA^−2Na^+ 0.1 mmol/L, while the other components remain unchanged.
as §1
After the tension is stabilized, wash the specimen three times and incubate with Ca-free K—H solution for 40 minutes; depolarize with Ca-free hyperkalemia solution for 20 minutes, and then add CaCl2 (10^−6-10^−2 mol/L) to the tube until a maximum response is achieved, and then record the curve. Then wash with K—H solution repeatedly, and replace with fresh K—H solution every 20 minutes; after balancing for 60 minutes and the baseline values are stabilized, wash the specimen again three times, and incubate with Ca-free K—H solution for 40 minutes; depolarize with Ca-free hyperkalemia solution for 20 minutes, and then add compound II-36 (3×10^−6 mol/L) to the tube, and incubate for 20 minutes; then add CaCl2 (10^−6-10^−2 mol/L) until a maximum response is achieved, and then record the curve. Mark CaCl2 contraction as ordinate using maximum response as 100% base. […] PA2 value of compound II-36 is 5.61±0.04 against CaCl2 contraction effect on rabbit aorta.
After the tension is stabilized, wash the specimen three times and incubate with Ca-free K—H solution for 40 minutes; depolarize with Ca-free hyperkalemia solution for 20 minutes, and then add CaCl2 (10^−6-10^−2 mol/L) to the tube until a maximum response is achieved, and then record the curve. […]

Row | SMILES | PA2 value against Phenylephrine contraction [1] | PA2 value against NA contraction [1] | PA2 value against CaCl2 contraction [2]
1 | FC(F)(F)c1cccc(N2CCN(CCCCn3cnc4ccccc43)CC2)c1 [Compound II-36, 1-(4-(4-(3-trifluoromethylphenyl)piperazin-1-yl)butyl)-1H-benzimidazole] | 7.37±0.08 | 7.37±0.08 | 5.61±0.04
2 | FC(F)(F)c1cccc(N2CCN(CCCCn3nnc4ccccc43)CC2)c1 [Compound II-65, 1-(4-(4-(3-trifluoromethylphenyl)piperazin-1-yl)butyl)-1H-benzotriazole] |  | 6.02±0.13 | 6.56±0.032
3 | c1ccc2c(c1)nnn2CCCCN1CCN(c2nsc3ccccc23)CC1 [Compound II-68, 3-(4-(4-(1H-benzotriazol-1-yl)butyl)piperazin-1-yl)benzisothiazole] | 8.45±0.03 |  | 5.36±0.26
